Assay results published in US20060120972A1, “9-(N-methyl-piperidyliden-4)-thioxanthene for treatment of pulmonary hypertension” (priority 2004, published 2006).
Entries after “also recorded” stand apart in the source; their conditions may differ.

Columns and labels:
[1] = tested on: plasma protein extravasation at the blood vessels within the Dura mater after mCPP application; test: mCPP model in guinea pigs: plasma protein extravasation (EvansBlue); type: in vivo; conditions: for Plasma protein extravasation as EvansBlue extinction at 600 nm: 2 min before 1 μg/kg mCPP, guinea pig dura mater
Experimental: In accordance to the protocol published by Markowitz et. al; (1987) and Olesen et. al; (2000), guinea pigs were used to determine the amount of plasma protein released at the blood vessels within the Dura mater after mCPP application.
2 minutes later 1 μg/kg body weight mCPP were injected and followed by the i.v. application of EvansBlue as marker for the protein plasma extravasation. 15 minutes later animals were transcranial perfused and decapitated. A defined area of the dura mater was isolated and transferred into an eppendorf tube containing 200 μl formamid. Because EvansBlue binds to plasma protein, the amount of bound marker dye is a measure of extravasation of plasma protein. Formamid dissolves EvansBlue from the protein which can be calorimetric detected and quantified at 600 nm.

human 5-HT2B receptor = biological target: T1, human 5-HT2B receptor (Homo sapiens, UniProt P41595); test: Cloned human 5-HT2B receptor binding assay; conditions: 5-HT2B versus 5HT2C; listed as compound of the preferred embodiments
T1 construct: expressed in transfected cells; host or cells: HEK 293 (transient)

[2] = biological target: T2, human Histamine H1 receptor (Homo sapiens, UniProt P35367); test: Cloned human H1 receptor binding assay
T2 construct: expressed in transfected cells
Experimental: (§1) CHO cells were stably transfected with an expression plasmid pCineohH1, pCineohH2, pCineohH3 and pCineohH4 encoding the human Histamine H1, H2, H3 or H4 receptor, respectively. Recombinant cell lines were harvested after confluent growth, homogenized in ice-cold 50 mM Na2/potassium phosphate buffer (pH 7.4) and used for radioligand binding studies. Cell homogenates (40-50 μg of protein) were incubated for 30 min at 25° C. in 50 mM Na2/potassium phosphate buffer (pH 7.4) in 400 μl with the various concentrations of either [^3H]-mepyramine, [^3H]-thiotidine, [^3H]-R-a-Methylhistamine, and [^3H]-pyramilamine for cells expressing recombinant human H1, H2, H3 and H4 receptors, respectively. The nonspecific binding was defined in the presence of 1 μM mianserin. […] The incubations were stopped by rapid dilution with 3 ml of ice-cold 50 mM Na2/potassium phosphate buffer (pH 7.4). […] Filters were washed twice in 3 ml of buffer and radioactivity retained on the filters was measured by liquid scintillation counting.
(§2) EC80 values were calculated from corresponding dose-response experiment using 5-HT, histamine, epinephrine (alpha 1A adrenergic receptor), dopamine (D2 dopaminergic receptor), and acetylcholine (M1 muscarinic receptor) as agonists.

[3] = biological target: T3, human Histamine H2 receptor (Homo sapiens, UniProt P25021); test: Cloned human H2 receptor binding assay
T3 construct: expressed in transfected cells
Experimental: as §1, §2

[4] = biological target: T4, human Histamine H3 receptor (Homo sapiens, UniProt Q9Y5N1); test: Cloned human H3 receptor binding assay
T4 construct: expressed in transfected cells
Experimental: as §1, §2

[5] = biological target: T5, human Histamine H4 receptor (Homo sapiens, UniProt Q9H3N8); test: Cloned human H4 receptor binding assay
T5 construct: expressed in transfected cells
Experimental: as §1, §2

T1 sequence (P41595 whole entry): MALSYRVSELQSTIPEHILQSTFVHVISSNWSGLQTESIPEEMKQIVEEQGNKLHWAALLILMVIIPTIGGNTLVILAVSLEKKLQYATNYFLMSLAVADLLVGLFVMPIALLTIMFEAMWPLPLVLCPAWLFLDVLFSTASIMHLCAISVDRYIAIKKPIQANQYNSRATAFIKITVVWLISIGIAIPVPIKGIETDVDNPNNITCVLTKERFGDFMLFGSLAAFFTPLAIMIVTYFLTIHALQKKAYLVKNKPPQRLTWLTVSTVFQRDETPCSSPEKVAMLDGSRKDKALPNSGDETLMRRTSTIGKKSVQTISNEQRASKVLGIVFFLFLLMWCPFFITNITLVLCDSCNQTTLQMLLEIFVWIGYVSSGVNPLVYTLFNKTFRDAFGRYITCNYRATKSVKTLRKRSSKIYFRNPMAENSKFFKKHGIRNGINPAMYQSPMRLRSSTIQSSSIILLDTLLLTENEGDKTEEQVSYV
T3 sequence (P25021 whole entry): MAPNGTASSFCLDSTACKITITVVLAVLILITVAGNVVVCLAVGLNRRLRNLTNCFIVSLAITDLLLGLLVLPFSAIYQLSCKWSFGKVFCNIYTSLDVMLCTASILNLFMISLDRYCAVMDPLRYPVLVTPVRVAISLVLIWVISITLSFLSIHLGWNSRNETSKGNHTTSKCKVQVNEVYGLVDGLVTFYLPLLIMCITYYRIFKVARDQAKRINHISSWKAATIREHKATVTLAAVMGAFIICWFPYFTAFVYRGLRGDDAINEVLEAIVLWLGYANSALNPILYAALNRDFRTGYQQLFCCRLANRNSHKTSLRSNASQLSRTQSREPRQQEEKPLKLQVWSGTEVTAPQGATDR
T4 sequence (Q9Y5N1 whole entry): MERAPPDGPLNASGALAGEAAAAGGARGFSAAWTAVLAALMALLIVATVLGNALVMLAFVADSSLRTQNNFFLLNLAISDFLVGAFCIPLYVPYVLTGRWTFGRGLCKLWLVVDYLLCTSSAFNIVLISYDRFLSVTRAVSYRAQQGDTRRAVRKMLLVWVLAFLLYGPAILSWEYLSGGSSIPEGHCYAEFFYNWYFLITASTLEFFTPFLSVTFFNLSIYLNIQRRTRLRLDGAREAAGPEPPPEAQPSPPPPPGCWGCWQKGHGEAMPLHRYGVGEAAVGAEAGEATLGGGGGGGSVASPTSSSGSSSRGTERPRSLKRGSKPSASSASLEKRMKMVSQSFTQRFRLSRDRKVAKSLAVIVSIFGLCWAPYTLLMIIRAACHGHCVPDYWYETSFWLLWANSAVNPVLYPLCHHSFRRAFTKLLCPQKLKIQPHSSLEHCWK
T5 sequence (Q9H3N8 whole entry): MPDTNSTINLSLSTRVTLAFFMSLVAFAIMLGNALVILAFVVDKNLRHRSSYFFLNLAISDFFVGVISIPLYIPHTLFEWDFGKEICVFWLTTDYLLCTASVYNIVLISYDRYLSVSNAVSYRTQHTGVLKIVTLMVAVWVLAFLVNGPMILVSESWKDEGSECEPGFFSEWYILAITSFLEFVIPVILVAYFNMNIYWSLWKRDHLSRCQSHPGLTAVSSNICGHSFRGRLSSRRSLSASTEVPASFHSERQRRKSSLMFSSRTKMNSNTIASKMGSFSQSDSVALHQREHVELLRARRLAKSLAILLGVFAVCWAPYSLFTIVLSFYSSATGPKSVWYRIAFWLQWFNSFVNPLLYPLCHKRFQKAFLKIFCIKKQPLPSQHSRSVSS
T2 sequence (P35367 whole entry): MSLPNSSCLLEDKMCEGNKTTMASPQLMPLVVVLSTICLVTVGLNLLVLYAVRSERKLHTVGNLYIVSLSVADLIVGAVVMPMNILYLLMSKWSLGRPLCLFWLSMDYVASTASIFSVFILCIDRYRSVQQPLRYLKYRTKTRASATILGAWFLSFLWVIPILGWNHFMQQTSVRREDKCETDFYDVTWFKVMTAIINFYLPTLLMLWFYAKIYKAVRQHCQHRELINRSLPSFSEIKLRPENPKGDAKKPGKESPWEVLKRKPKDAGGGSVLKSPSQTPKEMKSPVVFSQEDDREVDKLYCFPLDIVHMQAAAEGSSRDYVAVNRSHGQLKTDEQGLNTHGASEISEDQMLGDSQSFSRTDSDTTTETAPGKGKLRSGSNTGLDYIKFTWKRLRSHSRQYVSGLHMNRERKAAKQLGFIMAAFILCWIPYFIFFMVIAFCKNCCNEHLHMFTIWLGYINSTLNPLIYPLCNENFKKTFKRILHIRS

## CN1CCC(=C2c3ccccc3CCc3sccc32)CC1 [Pizotifen]
[1]; dose 1 μg/kg i.v.
  Plasma protein extravasation as EvansBlue extinction at 600 nm: 0.404 ± 0.025
[1]; dose 10 μg/kg i.v.
  Plasma protein extravasation as EvansBlue extinction at 600 nm: 0.144 ± 0.035
[1]; dose 100 μg/kg i.v.
  Plasma protein extravasation as EvansBlue extinction at 600 nm: 0.230 ± 0.018

## CN1CCC(=C2c3ccccc3Sc3ccccc32)CC1 [Pimethixene, 9-(N-methyl-piperidyliden-4)-thioxanthene]
Human 5-HT2B receptor
  Selectivity of affinity for 5-HT2B receptor versus 5HT2C receptor: selective affinity; also recorded: much higher affinity
[2]
  Affinity to the human H1 receptor (in words): high affinity
[3]
  Affinity for the human H2 receptor (in words): no affinity
  pKi values H2: low activity
[4]
  Affinity for the human H3 receptor (in words): no affinity
  pKi values H3: low activity
[5]
  Affinity for the human H4 receptor (in words): no affinity
  pKi values H4: low activity
[1]; dose 0.001 μg/kg i.v.
  Plasma protein extravasation as EvansBlue extinction at 600 nm: 0.269 ± 0.022
[1]; dose 0.01 μg/kg i.v.
  Plasma protein extravasation as EvansBlue extinction at 600 nm: 0.157 ± 0.040
[1]; dose 0.1 μg/kg i.v.
  Plasma protein extravasation as EvansBlue extinction at 600 nm: 0.126 ± 0.028

## Clc1cccc(N2CCNCC2)c1 [mCPP]
[1]; mCPP 1 μg/kg alone, no test compound, negative control 0,130±0,024
  EvansBlue extinction, positive control (mCPP agonist): 0,300±0,038

## CC[C@@H](CO)NC(=O)[C@@H]1C=C2c3cccc4c3c(cn4C)C[C@H]2N(C)C1 [Methysergide]
[1]; dose 0.1 μg/kg i.v.
  Plasma protein extravasation as EvansBlue extinction at 600 nm: 0.265 ± 0.034
[1]; dose 1 μg/kg i.v.
  Plasma protein extravasation as EvansBlue extinction at 600 nm: 0.250 ± 0.027
[1]; dose 10 μg/kg i.v.
  Plasma protein extravasation as EvansBlue extinction at 600 nm: 0.228 ± 0.064
[1]; dose 100 μg/kg i.v.
  Plasma protein extravasation as EvansBlue extinction at 600 nm: 0.189 ± 0.026
